Columns and labels:
ICR(CD-1) mice = assay: Reversal of Phencyclidine (PCP)-Induced Hyperlocomotor Activity in Mice; format: in vivo, mouse; conditions: i.p.
Excerpt: This assay for Reversal of Phencyclidine (PCP)-Induced Hyperlocomotor Activity in Mice is run substantially as the Reversal of Phencyclidine (PCP)-Induced Hyperlocomotor Activity in Rats assay provided above, using mice instead of rats and with the changes noted below.
Motor activity is monitored by placing individual male, ICR(CD-1), (Harlan, Indianapolis, Ind.) mice in transparent, plastic shoe-box cages of the dimensions 45×25×20 cm, with 0.5 cm depth of wood chips as bedding, and plastic lid on top of the cage. Motor monitors (Kinder Scientific) consist of a rectangular rack of 12 photobeams arranged in an 8×4 formation, (or a high density grouping of 22 in a 15×7 pattern) at a height of 2.5 cm. The shoe box cage is placed inside of these racks, with the racks on a 3 foot high tabletop in an isolated room. A compound of the present invention is dosed (intraperitoneal route, non-prodrug) usually within a range of 0.3-30 mg/kg; though higher doses may be used, 30 minutes prior to a 7.5 mg/kg challenge dose of phencyclidine (PCP). On the test day, mice are placed in the test cage and allowed to acclimate for 45 minutes prior to PCP challenge; mice are monitored for an additional 60 minutes following PCP administration.
Power analyses have determined that 7-8 mice per group are needed to have appropriate statistical power for detecting treatment differences (power=0.8).

Sprague-Dawley rats = assay: Forced Swim Test in rats; format: in vivo, rat
Method: In this assay, mechanisms with purported antidepressant-like activity decrease immobility in a brief inescapable forced swim episode.
The forced-swim test is conducted with both mice (male, NIH-Swiss mice, 20-25 g, Harlan Sprague-Dawley, Indianapolis, Ind.) and rats (male, Sprague-Dawley rats, 250-350 g, Harlan Sprague-Dawley, Indianapolis, Ind.). Mice are placed in clear plastic cylinders (diameter 10 cm; height: 25 cm) filled to 6 cm with 22-25° C. water for six min. The duration of immobility is recorded during the last 4 min of a six-minute trial. Rats are treated similarly, albeit in clear plastic cylinders of larger dimensions (diameter: 18 cm; height: 40 cm) filled with water (22-25° C.) to a depth of 16 cm for 15 min. Additionally, mice receive a single forced swim exposure; rats receive two, 5-min sessions separated by 24 hours (data is recorded only on Day 2). The compound of Example 1 is tested in mice using intraperitoneal dosing (1, 3, or 10 mg/kg), 60 min prior to testing. […] Example 2 is administered 5 min following the first forced swim exposure and 120 min prior to the test session on Day 2. Imipramine is used as a positive control for these studies. Compounds are formulated in a water vehicle, with minimal NaOH being added to Example 1 and Example 2. Compounds are in a clear solution. The amount of time spent immobile (defined as movements only necessary to keep the subject's head above water) is the dependent measure and recorded by an observer blinded to the drug treatment of the subjects. Data are analyzed by post-hoc Dunnett's test with alpha level set at 0.05. The mouse version of the forced swim test is most commonly used. An ED60 value (60% of the amount of immobility relative to vehicle controls) is calculated to estimate potency of the test compounds.

| SMILES | inhibition of PCP evoked ambulations (ICR(CD-1) mice; multiple dose experiment, 10 mg/kg dose) [%] | inhibition of PCP evoked ambulations (ICR(CD-1) mice; single dose experiment of 10 mg/kg) [%] | maximal effect, immobility as % of vehicle-treated rats (Sprague-Dawley rats; oral dosing) [%] | immobility time (Sprague-Dawley rats; oral, following dosing with 4.1 and 13.8 mg/kg, F(4,29)=14.72, p<0.0001) |
| --- | --- | --- | --- | --- |
| N[C@@]1(C(=O)O)C[C@@H](Sc2nnc[nH]2)[C@H]2[C@H](C(=O)O)[C@H]21 [Example 1, (1R,2S,4R,5R,6R)-2-Amino-4-(4H-1,2,4-triazol-3-ylsulfanyl)bicyclo[3.1.0]hexane-2,6-dicarboxylic acid] | 81±5 | 78±9 | – | – |
| C[C@H](N)C(=O)N[C@@]1(C(=O)O)C[C@@H](Sc2nnc[nH]2)[C@H]2[C@H](C(=O)O)[C@H]21.Cl [Example 2, (1R,2S,4R,5R,6R)-2-[[(2S)-2-Aminopropanoyl]amino]-4-(1H-1,2,4-triazol-3-ylsulfanyl)bicyclo[3.1.0]hexane-2,6-dicarboxylic acid hydrochloride] | – | – | 68 | significantly decreased immobility time |

Reference: patent US8318184B2, “MGLU2 agonists” (Eli Lilly and Company, priority 2009, dated 2012)
